Measurements published in ChEMBL document CHEMBL4038292 (Bioorg Med Chem Lett, 2017).
pKi: −log10 of the molar value. The source made the active and inactive calls. The rule behind the calls is not given here.

Experiments:
[1] = Half life in Kunming mouse plasma at 500 uM by RP-HPLC method; type: ADME, cell-free
[2] = system: Mus musculus; test: Antinociceptive activity in mouse model of thermal-induced nociception assessed as increase in latency to tail withdrawal at 10 mg/kg, sc measured up to 90 mins by tail flick test; type: functional, organism-based
[3] = Effect on human sperm motility at 10^-5 mol/L measured at 30 mins post dose by Makler counting chamber method (reference value: 66.9 +/- 4.6%); type: ADME, cell-based; settings: 0.5 h, 10 µM
[4] = biological target: Mu-type opioid receptor (Rattus norvegicus, UniProt P33535); test: Displacement of [3H]DAMGO from mu-opioid receptor in Wistar rat brain membrane after 1 hr by microbeta scintillation counting method; type: cell membranes
[5] = biological target: Delta-type opioid receptor (Rattus norvegicus, UniProt P33533); test: Displacement of [3H]DPDPE from delta-opioid receptor in Wistar rat brain membrane after 3 hrs by microbeta scintillation counting method; type: cell membranes
[6] = Effect on human sperm motility at 10^-6 mol/L measured at 10 mins post dose by Makler counting chamber method (reference value: 69 +/- 4.7%); type: ADME, cell-based; settings: 1 µM
[7] = Effect on human sperm motility at 10^-5 mol/L measured at 90 mins post dose by Makler counting chamber method (reference value: 62.1 +/- 5.7%); type: ADME, cell-based; settings: 1.5 h, 10 µM
[8] = Effect on human sperm motility at 10^-7 mol/L measured at 10 mins post dose by Makler counting chamber method (reference value: 69 +/- 4.7%); type: ADME, cell-based; settings: 0.1 µM
[9] = Effect on human sperm motility at 10^-7 mol/L measured immediately post dose by Makler counting chamber method (reference value: 70 +/- 4.2%); type: ADME, cell-based; settings: 0.1 µM
[10] = Half life in Kunming mouse brain homogenate at 500 uM by RP-HPLC method; type: ADME, tissue-based
[11] = system: Mus musculus; test: Antinociceptive activity in mouse model of thermal-induced nociception assessed as increase in latency to tail withdrawal at 5 mg/kg, sc measured up to 90 mins by tail flick test; type: functional, organism-based
[12] = Effect on human sperm motility at 10^-6 mol/L measured at 90 mins post dose by Makler counting chamber method (reference value: 62.1 +/- 5.7%); type: ADME, cell-based; settings: 1.5 h, 1 µM
[13] = Effect on human sperm motility at 10^-5 mol/L measured at 10 mins post dose by Makler counting chamber method (reference value: 69 +/- 4.7%); type: ADME, cell-based; settings: 10 µM
[14] = organism: Rattus norvegicus; test: Selectivity ratio of Ki for displacement of [3H]DPDPE from delta-opioid receptor in Wistar rat membrane to Ki for displacement of [3H]DAMGO from mu-opioid receptor in Wistar rat brain membrane; type: cell membranes
[15] = Effect on human sperm motility at 10^-6 mol/L measured at 60 mins post dose by Makler counting chamber method (reference value: 64.8 +/- 6.6%); type: ADME, cell-based; settings: 1 h, 1 µM
[16] = Effect on human sperm motility at 10^-6 mol/L measured at 30 mins post dose by Makler counting chamber method (reference value: 66.9 +/- 4.6%); type: ADME, cell-based; settings: 0.5 h, 1 µM
[17] = Effect on human sperm motility at 10^-5 mol/L measured at 60 mins post dose by Makler counting chamber method (reference value: 64.8 +/- 6.6%); type: ADME, cell-based; settings: 1 h, 10 µM
[18] = Effect on human sperm motility at 10^-7 mol/L measured at 60 mins post dose by Makler counting chamber method (reference value: 64.8 +/- 6.6%); type: ADME, cell-based; settings: 1 h, 0.1 µM
[19] = Effect on human sperm motility at 10^-6 mol/L measured immediately post dose by Makler counting chamber method (reference value: 70 +/- 4.2%); type: ADME, cell-based; settings: 1 µM
[20] = system: Mus musculus; test: Antinociceptive activity in mouse model of thermal-induced nociception assessed as increase in latency to tail withdrawal at 10 nmol/kg, icv measured 10 to 80 mins post dose by tail flick test relative to control; type: functional
[21] = system: Mus musculus; test: Antinociceptive activity in mouse model of thermal-induced nociception assessed as increase in latency to tail withdrawal at 2.5 nmol/kg, icv measured up to 60 mins by tail flick test; type: functional
[22] = Effect on human sperm motility at 10^-7 mol/L measured at 30 mins post dose by Makler counting chamber method (reference value: 66.9 +/- 4.6%); type: ADME, cell-based; settings: 0.5 h, 0.1 µM
[23] = Effect on human sperm motility at 10^-7 mol/L measured at 90 mins post dose by Makler counting chamber method (reference value: 62.1 +/- 5.7%); type: ADME, cell-based; settings: 1.5 h, 0.1 µM
[24] = Effect on human sperm motility at 10^-5 mol/L measured immediately post dose by Makler counting chamber method (reference value: 70 +/- 4.2%); type: ADME, cell-based; settings: 10 µM
[25] = system: Mus musculus; test: Antinociceptive activity in mouse model of thermal-induced nociception assessed as increase in latency to tail withdrawal at 10 nmol/kg, icv measured up to 50 mins by tail flick test; type: functional
[26] = system: Mus musculus; test: Antinociceptive activity in mouse model of thermal-induced nociception assessed as increase in latency to tail withdrawal at 5 mg/kg, sc measured up to 50 mins by tail flick test; type: functional, organism-based
[27] = system: Mus musculus; test: Antinociceptive activity in mouse model of thermal-induced nociception assessed as increase in latency to tail withdrawal at 10 nmol/kg, icv measured up to 60 mins by tail flick test; type: functional

Sequence of Delta-type opioid receptor (P33533 whole entry): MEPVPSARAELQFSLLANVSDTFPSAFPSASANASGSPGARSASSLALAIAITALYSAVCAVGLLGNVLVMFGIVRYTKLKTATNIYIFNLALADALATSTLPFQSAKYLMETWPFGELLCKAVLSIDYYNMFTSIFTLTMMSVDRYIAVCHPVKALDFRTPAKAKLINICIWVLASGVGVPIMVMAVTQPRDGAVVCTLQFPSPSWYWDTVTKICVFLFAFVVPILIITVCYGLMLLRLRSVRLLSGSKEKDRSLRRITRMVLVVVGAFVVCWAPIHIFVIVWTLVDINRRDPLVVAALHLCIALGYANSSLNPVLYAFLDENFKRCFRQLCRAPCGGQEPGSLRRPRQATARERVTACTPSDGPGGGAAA
Sequence of Mu-type opioid receptor (P33535 whole entry): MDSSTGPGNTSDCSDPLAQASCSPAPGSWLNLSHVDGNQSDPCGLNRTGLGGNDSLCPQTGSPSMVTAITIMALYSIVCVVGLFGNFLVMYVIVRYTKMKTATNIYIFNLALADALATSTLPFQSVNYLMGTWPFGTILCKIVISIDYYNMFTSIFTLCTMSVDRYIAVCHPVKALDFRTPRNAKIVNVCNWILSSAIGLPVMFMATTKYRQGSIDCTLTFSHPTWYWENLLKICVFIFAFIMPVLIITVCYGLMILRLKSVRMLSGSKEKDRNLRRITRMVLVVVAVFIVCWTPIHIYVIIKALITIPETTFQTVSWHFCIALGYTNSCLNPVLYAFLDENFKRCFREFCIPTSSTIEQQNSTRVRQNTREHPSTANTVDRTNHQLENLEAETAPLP

Compound | half-life at 500 µM [1] | Activity [3] | pKi [4] | pKi [5] | Activity [6] | Activity [7] | Activity [8] | Activity [9] | half-life at 500 µM [10] | Activity [12] | Activity [13] | Ratio Ki [14] | Activity [15] | Activity [16] | Activity [17] | Activity [18] | Activity [19] | Activity [22] | Activity [23] | Activity [24] | further results
C[C@@H](NC(=O)[C@H](Cc1ccc(O)cc1)NC(=N)N)C(=O)NCC(=O)N[C@@H](Cc1ccc(Cl)cc1)C(N)=O | 3.91 h | 56.1% | 9.46 | 7.00 | 64.6% | 53.5% | 58.8% | 62.7% | 6.52 h | 78.3% | 59.3% | 288 | 72% | 64.6% | 55.3% | 55.2% | 69.5% | 59% | 53.2% | 60.1% | Activity [2]: Active; Activity [11]: Active; MPE [20]: 90 - 100%; Activity [21]: Active
C[C@@H](NC(=O)[C@H](Cc1ccc(O)cc1)NC(=N)N)C(=O)NCC(=O)N[C@@H](Cc1ccccc1)C(N)=O | 3.87 h | 59.1% | 9.38 | 6.08 | 60.6% | 56.5% | 68.5% | 66.7% | 6.07 h | 57.3% | 60.3% | 2000 | 58% | 59.6% | 59% | 58.6% | 64.5% | 62.8% | 53.2% | 62.1% | Activity [2]: Active; Activity [11]: Active; MPE [20]: 90 - 100%; Activity [21]: Active
N=C(N)N[C@@H](Cc1ccc(O)cc1)C(=O)N1CCC[C@@H]1C(=O)NCC(=O)N[C@@H](Cc1ccccc1)C(N)=O | 3.68 h |  | 6.61 | 5.34 |  |  |  |  | 4.94 h |  |  | 18.4 |  |  |  |  |  |  |  |  | 
C[C@@H](NC(=O)[C@@H](N)Cc1ccc(O)cc1)C(=O)NCC(=O)N[C@@H](Cc1ccc(Cl)cc1)C(N)=O | 3.99 h |  | 8.91 | < 6.00 |  |  |  |  | 5.29 h |  |  |  |  |  |  |  |  |  |  |  | Activity [25]: Active; Activity [26]: Active
C[C@@H](NC(=O)[C@@H](N)Cc1ccc(O)cc1)C(=O)NCC(=O)N[C@@H](Cc1ccccc1)C(N)=O | 4.38 h |  | 8.68 | 5.42 |  |  |  |  | 4.33 h |  |  | 1800 |  |  |  |  |  |  |  |  | Activity [25]: Active; Activity [26]: Active
CN1CC[C@]23c4c5ccc(O)c4O[C@H]2[C@@H](O)C=C[C@H]3[C@H]1C5 [MORPHINE] |  | 58.8% |  |  | 62.7% | 55.7% | 70.8% | 69.4% |  | 59.3% | 60.2% |  | 60.7% | 63% | 57.6% | 69% | 65.6% | 67% | 57.7% | 62.7% | Activity [26]: Active
NC(=O)[C@H](Cc1ccccc1)NC(=O)[C@H](Cc1c[nH]c2ccccc12)NC(=O)[C@@H]1CCCN1C(=O)[C@@H](N)Cc1ccc(O)cc1 [ENDOMORPHIN-1] | 0.101 h |  |  |  |  |  |  |  | 0.392 h |  |  |  |  |  |  |  |  |  |  |  | Activity [27]: Active
